For one series, the system named is hERG. Particulars: cited from earlier work.
For series [1], the target named is T1, hERG F656A (Homo sapiens, UniProt Q12809, F656A). The experiment in a line: Whole-cell patch clamp (manual, 135 mM K+), HEK cells stably expressing hERGF656A.
Series [2] addresses T2, hERG WT (Homo sapiens, UniProt Q12809).
Series [3] deals with T3, hERG Y652A (Homo sapiens, UniProt Q12809, Y652A). The experiment in a line: Whole-cell patch clamp (automated), HEK cells stably expressing hERGY652A. For orientation: The patch-clamp technique gives a direct electrical read-out from membranes.
T3 sequence (Q12809 whole entry Y652A): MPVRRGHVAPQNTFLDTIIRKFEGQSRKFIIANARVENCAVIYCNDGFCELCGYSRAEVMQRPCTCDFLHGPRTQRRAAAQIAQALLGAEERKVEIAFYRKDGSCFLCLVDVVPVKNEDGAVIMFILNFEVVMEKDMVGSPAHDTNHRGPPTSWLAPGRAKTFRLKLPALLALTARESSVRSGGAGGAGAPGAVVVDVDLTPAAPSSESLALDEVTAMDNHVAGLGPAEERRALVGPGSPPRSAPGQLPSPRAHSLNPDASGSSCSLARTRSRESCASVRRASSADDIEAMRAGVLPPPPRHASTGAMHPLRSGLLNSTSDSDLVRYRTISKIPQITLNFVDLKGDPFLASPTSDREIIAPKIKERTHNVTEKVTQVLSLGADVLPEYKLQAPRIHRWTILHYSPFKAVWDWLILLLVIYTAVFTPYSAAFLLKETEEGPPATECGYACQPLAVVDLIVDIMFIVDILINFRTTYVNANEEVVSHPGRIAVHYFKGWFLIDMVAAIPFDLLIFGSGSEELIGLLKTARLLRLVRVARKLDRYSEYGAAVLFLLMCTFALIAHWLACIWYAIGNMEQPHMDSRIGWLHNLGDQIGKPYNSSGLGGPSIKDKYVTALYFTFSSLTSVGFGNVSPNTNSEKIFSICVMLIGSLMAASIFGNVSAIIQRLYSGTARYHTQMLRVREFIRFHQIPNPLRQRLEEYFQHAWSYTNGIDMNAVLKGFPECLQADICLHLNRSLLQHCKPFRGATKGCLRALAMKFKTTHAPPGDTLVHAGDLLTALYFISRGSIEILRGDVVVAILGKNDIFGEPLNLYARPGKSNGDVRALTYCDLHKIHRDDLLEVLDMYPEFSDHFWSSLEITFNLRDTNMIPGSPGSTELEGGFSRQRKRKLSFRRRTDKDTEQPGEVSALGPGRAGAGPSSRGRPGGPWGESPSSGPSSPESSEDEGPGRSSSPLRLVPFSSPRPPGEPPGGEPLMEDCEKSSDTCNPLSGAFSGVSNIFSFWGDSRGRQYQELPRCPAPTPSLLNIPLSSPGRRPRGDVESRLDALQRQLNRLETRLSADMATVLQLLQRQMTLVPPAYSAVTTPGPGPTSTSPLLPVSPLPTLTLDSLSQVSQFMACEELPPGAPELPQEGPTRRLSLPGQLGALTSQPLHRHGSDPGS
In series [4] the target is T2, hERG WT. Particulars: 1 µM.
The target of series [5] is T3, hERG Y652A. Conditions: 1 µM.
For series [6], the target named is T2, hERG WT. Briefly: in vitro. Conditions: Percent current inhibition hERG WT.
The next series deals with T4, WT hERG (Homo sapiens, UniProt Q12809).
T4 construct: purchased Life Technologies
T4 sequence (Q12809 whole entry): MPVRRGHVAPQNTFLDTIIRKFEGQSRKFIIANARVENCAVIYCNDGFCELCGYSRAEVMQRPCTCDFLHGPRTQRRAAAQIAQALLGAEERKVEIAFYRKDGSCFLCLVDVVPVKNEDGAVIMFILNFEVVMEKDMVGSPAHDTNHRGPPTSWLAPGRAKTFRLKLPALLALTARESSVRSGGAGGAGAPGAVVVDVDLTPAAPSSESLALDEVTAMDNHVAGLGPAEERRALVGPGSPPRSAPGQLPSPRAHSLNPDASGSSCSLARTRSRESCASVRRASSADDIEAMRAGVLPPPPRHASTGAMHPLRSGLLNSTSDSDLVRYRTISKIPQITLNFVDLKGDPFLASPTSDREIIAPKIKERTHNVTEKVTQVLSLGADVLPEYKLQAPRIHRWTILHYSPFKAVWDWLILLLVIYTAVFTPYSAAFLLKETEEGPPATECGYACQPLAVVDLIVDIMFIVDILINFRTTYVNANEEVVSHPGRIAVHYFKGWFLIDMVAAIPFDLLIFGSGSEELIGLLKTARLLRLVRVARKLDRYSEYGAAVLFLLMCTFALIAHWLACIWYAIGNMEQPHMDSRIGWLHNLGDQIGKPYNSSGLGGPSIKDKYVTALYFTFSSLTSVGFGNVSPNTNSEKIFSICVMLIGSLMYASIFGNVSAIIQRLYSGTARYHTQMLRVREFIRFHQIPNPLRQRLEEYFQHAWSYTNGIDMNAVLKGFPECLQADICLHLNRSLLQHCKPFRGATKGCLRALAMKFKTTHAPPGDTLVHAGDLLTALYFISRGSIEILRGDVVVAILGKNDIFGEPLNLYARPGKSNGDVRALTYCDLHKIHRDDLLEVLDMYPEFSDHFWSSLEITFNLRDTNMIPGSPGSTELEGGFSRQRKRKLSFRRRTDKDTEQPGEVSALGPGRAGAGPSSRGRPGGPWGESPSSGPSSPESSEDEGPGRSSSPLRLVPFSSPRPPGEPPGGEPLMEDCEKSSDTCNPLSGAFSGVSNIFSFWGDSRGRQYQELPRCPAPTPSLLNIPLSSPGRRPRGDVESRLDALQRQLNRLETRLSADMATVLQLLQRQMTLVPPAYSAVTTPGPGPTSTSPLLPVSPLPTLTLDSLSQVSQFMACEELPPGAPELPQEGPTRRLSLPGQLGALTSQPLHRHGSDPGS
The experiment in a line: Predictor hERG Fluorescence Polarization Assay kit. It is filed as binding. How it is done: All measurements were made according to the manufacturer’s instruction. Fluorescence polarization was measured using PerkinElmer EnVision® Multilabel reader (PerkinElmer, Woodbridge, ON, Canada).

Series [7] addresses T1, hERG F656A. Particulars: 1 µM.
Series [8] addresses T1, hERG F656A. The experiment in a line: in vitro.
Series [9] addresses T3, hERG Y652A. Briefly: in vitro. Conditions: pH 7.4, Percent current inhibition hERG Y652A. For orientation: The hERG channel carries a current that helps repolarise heart muscle cells.
The subject of series [10] is serotonin 5-hydroxytryptamine receptor 4 (5HT-4). Conditions: cited from earlier work.
The mark [11] stands for this setting: read-out: hERG IC50 from literature, Patch clamp HEK293 cells @ 34 ± 1 °C, ref Wu et al.
The mark [12] stands for this setting: read-out: hERG IC50 from literature, Patch clamp HEK293 cells @ 23 ± 1 °C, ref Toga et al.
Where [13] appears, read: pH 7.4, Percent current inhibition hERG F656A.
Setting [14] is: pH 7.4, reduction in the inhibition of F656A mutant when compared to the WT.

Where “and” joins values, the source holds several entries; their conditions need not be identical. Equal values may be shown once. Read-outs that look alike come from different tables or passages of the source. Some results are limits rather than exact numbers.

T1 sequence (Q12809 whole entry F656A): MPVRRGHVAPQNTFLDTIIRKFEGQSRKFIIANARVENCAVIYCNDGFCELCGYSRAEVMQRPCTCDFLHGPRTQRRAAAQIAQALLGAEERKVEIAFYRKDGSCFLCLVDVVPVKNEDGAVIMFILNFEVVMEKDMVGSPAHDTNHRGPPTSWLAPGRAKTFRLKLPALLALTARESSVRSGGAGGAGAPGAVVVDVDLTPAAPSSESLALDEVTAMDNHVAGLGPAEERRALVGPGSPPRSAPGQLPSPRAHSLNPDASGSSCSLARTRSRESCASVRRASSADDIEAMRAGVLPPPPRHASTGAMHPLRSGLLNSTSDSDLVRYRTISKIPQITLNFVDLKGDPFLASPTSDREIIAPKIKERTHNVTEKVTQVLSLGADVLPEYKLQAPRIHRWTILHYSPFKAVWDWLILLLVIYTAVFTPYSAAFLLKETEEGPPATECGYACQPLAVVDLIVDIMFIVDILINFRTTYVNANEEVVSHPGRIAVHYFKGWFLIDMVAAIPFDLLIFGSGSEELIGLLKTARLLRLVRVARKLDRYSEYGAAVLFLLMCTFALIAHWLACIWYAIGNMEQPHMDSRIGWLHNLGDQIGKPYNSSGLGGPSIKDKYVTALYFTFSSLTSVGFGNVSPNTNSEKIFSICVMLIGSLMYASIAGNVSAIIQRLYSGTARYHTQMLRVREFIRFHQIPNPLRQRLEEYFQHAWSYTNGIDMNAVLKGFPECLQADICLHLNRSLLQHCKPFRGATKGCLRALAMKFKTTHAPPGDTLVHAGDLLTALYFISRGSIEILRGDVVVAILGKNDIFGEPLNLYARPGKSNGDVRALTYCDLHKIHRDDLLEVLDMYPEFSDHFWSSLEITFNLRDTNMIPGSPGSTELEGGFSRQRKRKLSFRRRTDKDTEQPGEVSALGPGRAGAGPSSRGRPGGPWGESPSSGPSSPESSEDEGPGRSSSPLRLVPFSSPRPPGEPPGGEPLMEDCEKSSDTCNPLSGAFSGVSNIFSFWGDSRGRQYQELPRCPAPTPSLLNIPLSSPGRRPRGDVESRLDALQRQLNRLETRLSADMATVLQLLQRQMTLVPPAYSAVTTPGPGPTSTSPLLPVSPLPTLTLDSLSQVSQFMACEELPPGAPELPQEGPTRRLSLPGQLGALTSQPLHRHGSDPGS
T2 sequence (Q12809 whole entry): as the sequence (Q12809 whole entry) above

`COc1ccccc1OCC(O)CN1CCN(CC(=O)Nc2c(C)cccc2C)CC1` (centres unmarked) [Ranolazine]: in the series with hERG (read-out: hERG IC50 from literature, Patch clamp HEK293 cells @ 37 ± 1 °C, ref Du et al.), the IC50 was […]. Also, on hERG F656A [1] (100 µM), the “Percent current inhibition hERG F656A” value was 21.37% ± 7.80. The inhibition (in general, the change of the read-out against control, counted positive when it falls) at 10 µM is 4.39% against hERG F656A [1] (human, HEK cells stably expressing hERG F656A, pH 7.4, Percent current inhibition hERG F656A, 10 µM); 42.3% against hERG WT [2] (human, HEK cells stably expressing hERG WT, Percent current inhibition hERG WT, 10 µM); 2.4% on hERG Y652A [3] (human, HEK cells stably expressing hERG Y652A, pH 7.4, Percent current inhibition hERG Y652A, 10 µM). Besides, the inhibition at 30 µM at hERG F656A [1] (human, HEK cells stably expressing hERG F656A, pH 7.4, Percent current inhibition hERG F656A, 30 µM) is 10.9%; at hERG WT [2] (human, HEK cells stably expressing hERG WT, Percent current inhibition hERG WT, 30 µM), 77%; at hERG Y652A [3] (human, HEK cells stably expressing hERG Y652A, pH 7.4, Percent current inhibition hERG Y652A, 30 µM), 10.1%. The inhibition at 300 µM on hERG F656A [1] (human, HEK cells stably expressing hERG F656A, pH 7.4, Percent current inhibition hERG F656A, 300 µM) stood at 37.7%; on hERG WT [2] (human, HEK cells stably expressing hERG WT, Percent current inhibition hERG WT, 300 µM), 100%; on hERG Y652A [3] (human, HEK cells stably expressing hERG Y652A, pH 7.4, Percent current inhibition hERG Y652A, 300 µM) it was 64%. Besides, the inhibition at 500 µM came to 49.6% against hERG F656A [1] (human, HEK cells stably expressing hERG F656A, pH 7.4, Percent current inhibition hERG F656A, 500 µM); 100% against hERG WT [2] (human, HEK cells stably expressing hERG WT, Percent current inhibition hERG WT, 500 µM); 84.6% on hERG Y652A [3] (human, HEK cells stably expressing hERG Y652A, pH 7.4, Percent current inhibition hERG Y652A, 500 µM). In addition, the “Percent current inhibition hERG WT” value at hERG WT [2] (100 µM) was 97.36% ± 0.89. The inhibition at 100 µM was approximately 90% against hERG WT [2] (human, HEK cells stably expressing hERG WT, Percent current inhibition hERG WT, 100 µM) and 25% at hERG Y652A [3] (human, HEK cells stably expressing hERG Y652A, pH 7.4, Percent current inhibition hERG Y652A, 100 µM). Also, on hERG Y652A [3] (100 µM), the “Percent current inhibition hERG Y652A” value was 24.62% ± 2.64.
On to `Cc1cccc(C)c1NC(=O)CC12CCCN1CCC2` [Pilsicainide], for which the IC50 was < 30 µM and ~20 µM in the series on hERG (read-out: hERG IC50); 20.4 µM with hERG (setting [11]).
Regarding `Cc1cccc(C)c1NC(=O)C1CCCCN1C` (centres unmarked) [Mepivacaine], the IC50 in the series on hERG (read-out: hERG IC50) was > 100 µM and 156 µM; in the series on hERG (setting [11]), 156 µM.
Consider `CCOc1cc(N)c(Cl)cc1C(=O)NCC1CN(Cc2ccc(F)cc2)CCO1` (centres unmarked) [Mosapride], for which, on hERG WT [4], the “Percent current inhibition hERG WT” value is reported as “very small percentage”. In addition, the “Percent current inhibition hERG Y652A” value at hERG Y652A [5] was “very small percentage”. On hERG WT [6], this compound came in with an inhibition at 1 µM of 13.1%, an inhibition at 3 µM of 33.5%, an inhibition at 5 µM of 45% and an inhibition at 10 µM of 68.7%. This compound also displayed an inhibition at 30 µM on hERG WT [6] of 92.5%. In addition, the “affinity to WT hERG in FP assay” value at WT hERG was “much weaker affinity”. Also, the “Percent current inhibition hERG F656A” value at hERG F656A [7] is given as “very small percentage”. In addition, the IC50 in the series on hERG (setting [12]) is 4.8 µM. For the same compound, on hERG F656A [8] (setting [13]), the inhibition at 1 µM was found to be 11%, the inhibition at 3 µM was determined as 12.4%, 5 µM produced 16% inhibition and at 10 µM the inhibition was 25.7%. On hERG F656A [8] (setting [13]), this compound registered an inhibition at 30 µM of 34.4% and an inhibition at 100 µM of 40.2%. For the same compound, the inhibition at 1 µM on hERG F656A [8] (setting [14]) is 2%. At hERG Y652A [9], this compound gave an inhibition at 1 µM of 7.13%, an inhibition at 3 µM of 13.6%, an inhibition at 5 µM of 20.6% and an inhibition at 10 µM of 31.3 ± 3.65%. At hERG Y652A [9], this compound came in with an inhibition at 30 µM of 66.8%. The compound further registered an IC50 against hERG WT [2] of 5.36 µM. The IC50 at hERG Y652A [3] was 17.4 µM.
With `COc1cc(N)c(Cl)cc1C(=O)NC1CCN(CCCOc2ccc(F)cc2)CC1OC` (centres unmarked) [Cisapride], the “binding affinity to 5HT-4 (agonist)” value in series [10] is ~ 14 nM. In the series on hERG (read-out: hERG1 channel inhibition affinity), the IC50 was […]. The IC50 in the series with hERG (setting [12]) was […]. At hERG F656A [8] (setting [13]), the inhibition at 3 µM stood at 38.7%, the inhibition at 5 µM stood at 59.6% and the inhibition at 10 µM turned out to be 75.5%. At hERG F656A [8] (setting [14]), this compound had an inhibition at 1 µM of approximately 80%. At hERG Y652A [9], this compound returned an inhibition at 3 µM of 39.1%, an inhibition at 5 µM of 57.7% and an inhibition at 10 µM of 91.7%.

Source of the values: publication PMC7530726, “A structure-based computational workflow to predict liability and binding modes of small molecules to hERG” (Scientific Reports, 2020).
